# Activity calls are given as the source filed them. For most assays here, no stated cut-off is given here; in the data, actives have a measured EC50 and inactives only a lower limit.
# Key:
# [1] = NIH3T3 cell viability loss – ATP luminescence, mouse fibroblasts, counter-screen, dose response (AID 2010); format: functional, cell-based;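 further: cells exposed to compound for about 90 hours before reading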
# [2] = Trypanosoma cruzi growth suppression in host cells – NIH3T3 host cells, beta-gal luminescence, confirmation (AID 2044); format: functional, cell-based;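 further: intracellular parasites grown in NIH/3T3 mouse fibroblasts as host cells; luminescent beta-galactosidase reporter signal from transgenic T. cruzi replicating inside host cells; inhibitors lower the luminescence signal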
# [3] = target: T1, Heat shock factor protein 1 (Mus musculus, UniProt P38532); test: decrease of HSF1-responsive luciferase luminescence – cell-based, NIH3T3, dose retest, confirmation (AID 2382); format: functional;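 further: NIH3T3 fibroblasts with HSF1-driven luciferase reporter stressed by proteasome inhibitor MG132; luminescence from HSF1-driven luciferase expression after 8 hours of MG132 stress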
# T1 sequence (P38532 whole entry): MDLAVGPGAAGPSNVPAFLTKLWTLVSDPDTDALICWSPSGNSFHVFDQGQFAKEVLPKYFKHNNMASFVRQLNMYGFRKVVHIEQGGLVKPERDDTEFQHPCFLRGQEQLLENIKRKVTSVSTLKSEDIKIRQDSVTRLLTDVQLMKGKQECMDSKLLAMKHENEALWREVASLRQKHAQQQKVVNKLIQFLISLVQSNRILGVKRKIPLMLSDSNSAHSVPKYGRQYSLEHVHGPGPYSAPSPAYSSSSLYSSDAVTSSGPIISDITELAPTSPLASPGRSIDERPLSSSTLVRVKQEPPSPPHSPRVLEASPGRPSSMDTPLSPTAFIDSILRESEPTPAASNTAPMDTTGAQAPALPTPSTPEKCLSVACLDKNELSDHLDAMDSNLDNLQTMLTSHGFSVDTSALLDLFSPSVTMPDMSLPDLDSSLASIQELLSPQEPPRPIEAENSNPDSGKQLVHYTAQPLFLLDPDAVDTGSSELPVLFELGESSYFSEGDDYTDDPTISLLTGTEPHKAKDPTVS
# [4] = target: T2, Rac GTPase-activating protein 1 (Homo sapiens, UniProt Q9H0H5); test: blockers of MgcRacGAP-driven Rac1 GTP hydrolysis – biochemical, ADP Hunter fluorescence, primary and confirmatory, confirmation (AID 624330); format: functional
# T2 sequence (Q9H0H5 whole entry): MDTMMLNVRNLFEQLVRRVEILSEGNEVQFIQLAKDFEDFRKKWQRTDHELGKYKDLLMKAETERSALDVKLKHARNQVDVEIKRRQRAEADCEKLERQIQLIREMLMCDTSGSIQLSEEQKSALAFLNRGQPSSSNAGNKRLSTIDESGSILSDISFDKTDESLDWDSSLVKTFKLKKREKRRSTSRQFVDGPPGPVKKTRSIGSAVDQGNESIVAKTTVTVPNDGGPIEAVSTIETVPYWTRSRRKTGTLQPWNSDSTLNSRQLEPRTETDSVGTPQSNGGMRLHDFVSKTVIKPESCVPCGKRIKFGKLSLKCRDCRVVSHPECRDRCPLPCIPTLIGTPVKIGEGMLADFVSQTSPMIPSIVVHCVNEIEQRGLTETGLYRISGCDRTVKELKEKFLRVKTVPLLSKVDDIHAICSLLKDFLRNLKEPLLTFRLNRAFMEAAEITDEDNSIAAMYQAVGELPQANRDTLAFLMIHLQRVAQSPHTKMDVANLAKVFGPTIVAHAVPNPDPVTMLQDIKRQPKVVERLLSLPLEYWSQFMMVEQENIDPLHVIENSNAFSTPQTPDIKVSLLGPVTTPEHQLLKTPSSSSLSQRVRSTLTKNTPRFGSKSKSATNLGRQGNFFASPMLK
# [5] = system: Streptococcus sp. 'group A'; test: Streptococcus pyogenes SK(-)GAS viability under kanamycin – luminescence, BacTiterGlo, confirmation, counter-screen for streptokinase expression inhibitor project, dose response (AID 1900); format: functional, organism-based
# Streptokinase A = target: T3, Streptokinase A (Streptococcus pyogenes serotype M1, UniProt P10520); test: viability-normalized secreted streptokinase activity reduction – plasminogen activation absorbance, OD405, dose response (AID 1914); format: functional, Streptococcus pyogenes M1 GAS;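 further: secreted streptokinase activity via plasminogen activation per viability signal from cell pellet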
# T3 sequence (P10520 whole entry): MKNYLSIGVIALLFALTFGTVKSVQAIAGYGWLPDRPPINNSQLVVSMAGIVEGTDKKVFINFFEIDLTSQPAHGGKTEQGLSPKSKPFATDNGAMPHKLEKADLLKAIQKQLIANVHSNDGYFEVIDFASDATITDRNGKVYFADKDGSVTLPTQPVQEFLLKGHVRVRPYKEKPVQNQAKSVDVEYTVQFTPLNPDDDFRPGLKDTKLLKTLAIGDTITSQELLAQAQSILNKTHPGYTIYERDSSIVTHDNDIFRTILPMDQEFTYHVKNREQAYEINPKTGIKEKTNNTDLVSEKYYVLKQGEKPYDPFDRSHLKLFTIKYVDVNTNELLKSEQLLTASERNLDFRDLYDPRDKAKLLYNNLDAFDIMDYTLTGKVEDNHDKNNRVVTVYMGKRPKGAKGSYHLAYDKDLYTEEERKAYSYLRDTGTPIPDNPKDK
# Streptococcus = test: GAS UMAA2166 growth inhibition – luminescence, BacTiterGlo, counter-screen for streptokinase expression inhibitor project, dose response (AID 1915); format: functional, organism-based;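 further: potency for reduction of bacterial viability or growth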
structure (smiles),measurement,setting,value
Cc1ccccc1OCCC(=O)Nc1ccc(S(=O)(=O)N(C)C2CCN(C)CC2)cc1,EC50,[1],> 30 µM (not active)
same,EC50,[2],0.324 µM (active)
CCc1cccc(CC)c1N=C(S)N1CCn2cccc2C1c1cccnc1 (stereo unspecified),EC50,[3],> 195 µM (not active)
COc1ccccc1C(O)(C(=O)N(NC(C)=O)c1ccccc1)c1ccccc1OC,EC50,[3],> 195 µM (not active)
CC1CN(CCOCCOc2ccccc2-c2ccccc2)CC(C)O1 (stereo unspecified),IC50,[4],87.5 µM (active)
COc1cc2c(cc1NC(=S)Nc1cccc3ccccc13)oc1ccccc12,IC50,[4],70.2 µM (active)
CCCCCCCCN1[C@@H](CC(=O)OCC)c2ccc(C(F)(F)F)cc2S1(=O)=O,EC50,[1],37.8 µM (active)
same,EC50,[2],0.87 µM (active)
O=C1[C@H]2[C@@H](c3ccc(Cl)cc3)N3C(=O)N(c4cccc(F)c4)C(=O)[C@@]3(Cc3ccc(Cl)cc3)[C@H]2C(=O)N1C1CCCCC1,EC50,[1],> 30 µM (not active)
same,EC50,[2],1.21 µM (active)
CCC(N=C(S)NCc1ccccc1)C(=O)O (stereo unspecified),EC50,[3],> 195 µM (not active)
O=C(c1ccc(Cl)cc1)c1cnc(Nc2ccccc2Cl)s1,EC50,[5],18.9 µM (active)
same,EC50,Streptokinase A,> 150 µM (not active)
same,EC50,Streptococcus,30.5 µM (active)
O=C(CN1CCN(Cc2ccccc2)CC1)Nc1ccc(F)c(F)c1,IC50,[4],73.9 µM (active)
NNc1nc(Nc2ccccc2)nc(Nc2ccccc2)n1,EC50,[5],6.74 µM (active)
same,EC50,Streptokinase A,23.5 µM (active)
same,EC50,Streptococcus,> 150 µM (not active)
COc1ccc(CCNC(=O)C(=O)Nc2ccc3nc4n(c(=O)c3c2)CCCCC4)cc1OC,EC50,[5],11.3 µM (active)
same,EC50,Streptokinase A,> 150 µM (not active)
same,EC50,Streptococcus,> 150 µM (not active)
CCN1CCN(CC(=O)Nc2nc3ccc(OC)cc3s2)CC1,IC50,[4],74.3 µM (active)
Cc1cccc(NC(S)=NC(NC(=O)OCc2ccccc2)C(Cl)(Cl)Cl)c1 (stereo unspecified),EC50,[1],> 60 µM (not active)
same,EC50,[2],3.39 µM (active)
O=S(=O)(c1ccc2ccccc2c1)N1CCN(C2CCN(Cc3ccccc3)CC2)CC1,IC50,[4],108 µM (active)
CN1CCN(c2ccc([N+](=O)[O-])c(N3CCCCC3)c2)CC1,EC50,[1],> 30 µM (not active)
same,EC50,[2],0.661 µM (active)
CC/C(=N\c1ccc(N)cc1)C1=C(O)C(C(=O)OC)C(C)(C)CC1=O (stereo unspecified),IC50,[4],6.8 µM (active)
COc1ccc(NC(=O)CNCc2cccs2)c(OC)c1,IC50,[4],284 µM (active)
CCCCNC(=O)C(c1ccc(OCC(=O)OC)c(C(=O)OC)c1)N(CCc1c[nH]c2ccccc12)C(=O)CCCCCN1C(=O)NC(c2ccc(-c3ccccc3)cc2)C(C(=O)OCc2ccccc2)=C1C (stereo unspecified),EC50,[3],> 195 µM (not active)
C=CCc1c(C)nc(-c2ccccc2)nc1N/N=C/c1ccncc1,EC50,[1],6.59 µM (active)
same,EC50,[2],0.941 µM (active)
CN1CCN(/C=N/C2=NN(c3cccc(C(F)(F)F)c3)CC2)CC1,IC50,[4],33.9 µM (active)
Cc1ccc(S(=O)(=O)N2CCN(CC(=O)N/N=C\c3ccncc3)CC2)cc1,EC50,[3],> 195 µM (not active)
CC/C(=N\NS(=O)(=O)c1ccc(C)cc1)c1ccco1,EC50,[3],> 195 µM (not active)
CCCOc1ccc(CC(=O)N/N=C\c2ccc(F)cc2)cc1,EC50,[3],> 195 µM (not active)
CC(O/N=C\c1ccccc1O)C(=O)Nc1ccccc1C(=O)N1CCOCC1 (stereo unspecified),EC50,[3],> 195 µM (not active)
O=C1c2ccccc2C2=Nc3ccccc3SC(c3cccc(F)c3)C12 (stereo unspecified),EC50,[1],> 60 µM (not active)
same,EC50,[2],1.27 µM (active)
CCN1CCN(C(=O)N[C@@H](C(=O)N[C@@H]2C(=O)N3[C@@H]2SC(C)(C)[C@@H]3C(=O)O)c2ccccc2)C(=O)C1=O [PIPERACILLIN SODIUM],EC50,[5],0.361 µM (active)
same,EC50,Streptococcus,0.746 µM (active)

# Source: ChEMBL document CHEMBL1201862, “PubChem BioAssay data set” (2004)
